Measurements published in publication PMC9601670, “Solubility Enhancement, Formulation Development, and Antibacterial Activity of Xanthan-Gum-Stabilized Colloidal Gold Nanogel of Hesperidin against Proteus vulgaris” (Gels, 2022).
Converted amounts (≈) assume the structure as drawn.

Legend:
[1] = Solubility study of HSP (shake flask); format: physicochemical; details: for Hesperidin Solubility: shaken 24 h, room temperature
Protocol: The solubility of HSP was determined by adopting the standard shake flask technique according to the method described by Majumdar and colleagues. The screening of the solution was performed by evaluating the solubility of HSP (10% (w/v) with respect to pH solution. To perform this experiment, 10% w/v of HSP was added to a glass vial containing 5 mL of the chosen solvent and tightly sealed. To ensure homogeneous mixing, the samples were shaken continuously for 24 h in a water bath at room temperature and 50 rpm. After 24 h, samples were centrifuged at 4500 rpm and HSP was assayed in the supernatant. Solubility was determined in water and in buffers with pH values ranging from 1.2 to 6.8. In addition, the effect of XA-stabilized AuNPs on the solubility of hesperidin was examined to determine by how much the solubility was increased.

[2] = test system: Proteus vulgaris (MTCC 7299); test: Minimum inhibitory concentration (microtiter plate dilution); format: cell-based; details: P. vulgaris MTCC 7299, 37 °C, 24 h, absorbance 640 nm; method: concentration that inhibited 50% of bacterial growth
Protocol: Briefly, stock solutions of XA@AuNPs gel and HSP@XA@AuNPs gel were prepared in water to ensure complete solubilization at a concentration of 1 mg/mL. A total of 100 µL of nutrient broth and Sabouraud dextrose broth was added to wells 1 to 10. XA@AuNPs gel and HSP@XA@AuNPs gel samples (100 µL) were added to the first well. The solution was serially diluted from well 1 to well 10, while 100 µL from well 10 was discarded. Then 100 µL of the bacterial suspension was added to all dilution wells from well 1 to well 10. The overnight bacterial suspension (100 µL) was added to well 11, and 100 µL of sterile broth was added to serve as a positive control or growth control, while 200 µL of sterile nutrient broth and Sabouraud dextrose broth in well 12 served as a negative control or sterility control. The plate was incubated at 37 °C for 24 h. After incubation, absorbance in each well was measured using an ELISA reader (Erba) at a wavelength of 640 nm. The procedure described above was performed for each microbial strain. The concentration of the sample and standard that inhibited 50% of bacterial growth was determined for all microorganisms. All tests were performed in triplicate to minimize error.

SMILES: COc1ccc([C@@H]2CC(=O)c3c(O)cc(O[C@@H]4O[C@H](CO[C@@H]5O[C@@H](C)[C@H](O)[C@@H](O)[C@H]5O)[C@@H](O)[C@H](O)[C@H]4O)cc3O2)cc1O [HSP, hesperidin]
- Hesperidin Solubility ([1]; Water): 4.09 ± 0.20 µg/mL
- Hesperidin Solubility ([1]; XA-stabilized AuNPs as solvent): 62.23 ± 3.1 µg/mL
- Solubility increase by addition of XA-stabilized AuNPs compared to water ([1]; XA-stabilized AuNPs vs water): 15 fold
- Hesperidin Solubility ([1]; pH 1.2 buffer): 2.44 ± 0.12 µg/mL
- Hesperidin Solubility ([1]; pH 5.0 buffer): 3.42 ± 0.17 µg/mL
- Hesperidin Solubility ([1]; pH 6.8 buffer): 6.19 ± 0.30 µg/mL
- MIC [2]: 9.2 µg/mL (≈ 15.1 µM)
